Values quoted from earlier work, collected in patent US20100105761A1, “TREATMENT OF PAIN THROUGH EXPRESSION OF OPIOID RECEPTORS” (priority 2006, published 2010).
Where two headings read alike, the source gives them in different places.

Assays:
masseter muscle [1] = details: human
TMJ area = details: rats, dose dependent
masseter muscle [2] = details: rat
TMJ = details: placed into the TMJ of cats
μ receptor [3] = details: in vivo
μ receptor [4] = system: μ receptor

In the case of `N[C@@H](CCC(=O)O)C(=O)O` [glutamate], the “masseter muscle activity, female versus male” value (masseter muscle [1]) is given as “evoked higher masseter muscle activity in female than males”, the “EMG activity after injection into the TMJ area” value (TMJ area) is given as “induced a prolonged increase in EMG activity” and the “masseter muscle activity, female versus male” value (masseter muscle [2]) is given as “evoked higher masseter muscle activity in female than males”.
In the case of `NCCc1c[nH]cn1` [histamine], the “EMG activity in the temporal, digastric and genioglossus muscles” value (TMJ) is given as “increase in electromyographic (EMG) activity”.
In the case of `C=CCN1CC[C@]23c4c5ccc(O)c4O[C@H]2/C(=N/N=C2\CC[C@@]4(O)[C@H]6Cc7ccc(O)c8c7[C@@]4(CCN6CC=C)[C@H]2O8)CC[C@@]3(O)[C@H]1C5` [naloxonazine], the “effect on binding of radioligands to the μ1-site” value (μ1-site) is given as “abolish the binding of radioligands”.
For `C=CCN1CC[C@]23c4c5ccc(O)c4O[C@H]2/C(=N\N)CC[C@@]3(O)[C@H]1C5` [naloxazone], the “blockade of morphine-induced antinociception” value (μ receptor [3]) is listed as “selectively blocked”, the “blockade of morphine-induced respiratory depression” value (μ receptor [3]) is listed as “did not block” and the “blockade of the induction of morphine dependence” value (μ receptor [3]) is listed as “did not block”. For the same compound, the “effect on binding of radioligands to the μ1-site” value (μ1-site) was “abolish the binding of radioligands”.
In the case of `[Cl-].[K+]` [potassium chloride], the “EMG activity in the temporal, digastric and genioglossus muscles” value (TMJ) is listed as “increase in electromyographic (EMG) activity”.
In the case of `CC(=O)Oc1ccc2c3c1O[C@H]1[C@@H](OC(C)=O)C=C[C@H]4[C@@H](C2)N(C)CC[C@@]341` [heroin], the “antinociception in mice of the CXBX strain” value (μ receptor [4]; CXBX strain) is listed as “potently antinociceptive” and the “antinociception in MOR-1 knockout mice, exon-1 disrupted” value (μ receptor [4]; MOR-1 knockout, exon-1) is listed as “still produce antinociception”.
